Results as given in US20060020036A1, “Methods and compositions to promote bone homestasis” (priority 2004, published 2006).
“Also recorded” adds a separate entry of the source.

Experiments:
GPR65 = target: T1, GPR65 (Homo sapiens, UniProt Q8IYL9); experiment: AP assay: MPCs infected with Ad-GPR65 and treated with ligand; assay type: cell-based; details: ligand at different concentrations
T1 construct: amplification of the complete open reading frame from ATG start codon to the stop codon of drugable genes; expressed in transfected cells; host or cells: primary human mesenchymal progenitor cells (MPCs), transduced with Ad-GPR65 and Ad-hCAR
Protocol: These dose-response curves are depicted in FIG. 5. A dose-response curve for AP activity is generated for MPCs infected with Ad-NR1H3 and treated with T0901317 (FIG. 5A). MPCs are seeded on day 0 at 1000 cells per well of a 384 well plate and co-infected the next day using AdC51-hCAR (MOI 250) and different MOIs of Ad5-NR1H3 (MOI 12000, 4000, 1333, 444). On day 1, 5 concentrations (1E-10M, 1E-9M, 1E-8M, 1E-7M, 1E-6M) of the compound T0901317 (Cayman Chemical, Michigan, USA, Cat. No. 71810) with fixed vehicle concentration (the vehicle is DMSO at the concentration is 0.01%) are added to the wells. After incubation for 6 days at 37° C., 10% CO2 in a humidified incubator, up-regulation of alkaline phosphatase is read: 15 μl MUP is added to each well, the plates are incubated for 15 min at 37° C. and monitored for AP activity using a fluorescence plate reader (Fluostar, BMG).
Dose-response curves for AP activity are generated in a similar way for MPCs infected with Ad-GPR65 and treated with 1-b-D-Galactosylsphingosine (FIG. 5B); for MPCs infected with Ad-AVPR2 and treated with [deamino-Cysl, D-Arg8]-Vasopressin (DDAVP) (FIG. 5C).

NR5A2 mRNA = experiment: Up-regulation of NR5A2 and NR1H3 mRNA levels by osteogenic triggers in MPCs; assay type: cell-based, human; details: final concentration 0.1 μM, vs vehicle, several time points
Protocol: 100,000 MPCs are seeded in each well of a 6 well plate in 2 ml MPC medium, containing 10% FCS. The next day, after incubation at 37° C., 10% CO2 in a humidified incubator, cells are co-infected with AdC15-hCAR (final MOI of 750) and Ad-BMP2, Ad-RUNX2, Ad-MSX2, Ad-PTHR1/PTHLH or Ad-eGFP or Ad-luciferase as negative controls (final MOIs of 1250 and 2500). Alternatively, cells are treated with dexamethasone (final concentration 0.1 μM), VitD3 (final concentration 0.1 μM) or the vehicle controls (0.1% EtOH or DMSO). Cells are incubated at 37° C., 10% CO2 in a humidified incubator for a further six days unless cells are already harvested for RNA isolation. Virus is removed and replaced by 2 ml fresh OS medium (proprietary medium containing 10% FCS). Over the next 18 days, medium is refreshed 3 times per 2 weeks. Every other time, medium is refreshed half or completely. […] The fold up-regulation of NR5A2 or NR1H3 mRNA compared to negative controls (vehicle for dexamethasone or VitD3 treatment) or Ad-luciferase for Ad-infections) is calculated (FIG. 16).

[1] = system: calvarial skull bones (hemicalvaria); experiment: Calvarial skull assay (bone organ culture); assay type: cell-based, CD1 mice
Protocol: CD1 pups are harvested around birth from CD1 female mice (received from Janvier (Le Genest St Isle, France) when they were 11 days pregnant). Pups are decapitated and the calvarial skull is dissected and split into 2 hemicalvaria. Hemicalvaria are blotted using sterile gauze, weighed and cultured in 24 well plates (MEMalpha or BGJb-Fitton-Jackson medium containing 50 μg/ml L-ascorbic acid (Sigma, A-4034), 5 mM β-glycerophosphate (Sigma, G-9891) and Penicillin-Streptomycin (Invitrogen Cat # 15140-122)). Small molecules (ligands, agonists, antagonists) are tested in at least three-fold at a minimum of 3 concentrations. Each small molecule is added to the medium on day 0 and added again when refreshing the medium (every 2-3 days). Three to 16 days after the start of the experiment, skulls are weighed again after blotting them dry using sterile gauze. The weight difference is calculated, expressed as percent weight change and the mean and standard deviations (SD) are calculated for the triplicate measurements. Data are analyzed using the Student's t-test.
The formation of new osteoid is analyzed histologically as follows: hemicalvaria are fixed in 10% buffered formalin for at least 2 days, decalcified in 10% EDTA overnight, processed through graded alcohols and embedded in paraffin wax. Three to 10 μm sections are prepared of the calvaria and stained with hematoxylin and eosin (H&E). Healthy cells, dead cells, old and new bone, and collagen are identified by their distinctive morphology and colouring observed after H&E staining. The surfaces taken by these are measured stereologically (μm^2 readout) and termed Osteoblast area, Debris area, Native and New bone area, Collagen area and Total area (sum of the previous 5 areas), respectively. In addition, the thickness (μm readout) is measured at 8 positions, evenly spaced over the section.
The histological readout of the calvarial skull assay is developed using known osteogenic agents. Hemicalvaria were treated with recombinant human parathyroid hormone (rhPTH).
T0901317 is added to the culture medium of the dissected hemicalvaria at the day of dissection at several doses (19.5, 78.1 and 313 nM), in fourfold. The concentration of the solvent (vehicle), DMSO, is fixed at a final concentration of 0.05%. The medium, containing T0901317 or vehicle control is refreshed every 2-3 days. Hemicalvaria are harvested 7 days after the initiation of the experiment and subjected to the histological analysis described above.

T1 sequence (Q8IYL9 whole entry): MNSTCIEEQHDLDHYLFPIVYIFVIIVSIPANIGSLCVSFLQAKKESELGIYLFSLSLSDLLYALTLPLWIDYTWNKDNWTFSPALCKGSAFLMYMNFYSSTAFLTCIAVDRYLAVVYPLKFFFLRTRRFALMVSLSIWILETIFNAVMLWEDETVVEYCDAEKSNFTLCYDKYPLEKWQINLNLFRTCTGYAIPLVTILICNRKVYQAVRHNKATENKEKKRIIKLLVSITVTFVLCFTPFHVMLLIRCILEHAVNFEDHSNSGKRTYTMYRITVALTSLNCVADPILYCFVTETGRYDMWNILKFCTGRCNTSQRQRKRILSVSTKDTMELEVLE

Question: How did the “up-regulation of endogenous alkaline phosphatase (AP) activity, dose-response” value (GPR65) turn out when `CCCCCCCCCCCCCC=CC(O)C(N)CO[C@@H]1O[C@H](CO)[C@H](O)[C@H](O)[C@H]1O` (stereo partly drawn) [1-b-D-Galactosylsphingosine] was run?
Answer: Its value is “dose-dependently increase the up-regulation of the endogenous alkaline phosphatase activity; also recorded: dose-dependent up-regulation of AP activity”.

Question: `C=C1CC[C@H](O)C/C1=C/C=C1\CCC[C@]2(C)[C@@H]([C@H](C)CCCC(C)C)CC[C@@H]12` [VitD3] was tested. Which “NR5A2 mRNA levels” value (NR5A2 mRNA) did it give?
Answer: Its value is “up-regulated”.

B1: PTH: recombinant human parathyroid hormone, known osteogenic agent (protein, UniProt P01270 32-115, looked up)
Parathyroid hormone: SVSEIQLMHNLGKHLNSMERVEWLRKKLQDVHNFVALGAPLAPRDAGSQRPRKKEDNVLVESHEKSLGEADKADVNVLTKAKSQ
modifications: Parathyroid hormone
notes: recombinant human parathyroid hormone, known osteogenic agent
Question: How did the “effect on bone tissue” value ([1]; 10^−7 M) turn out when B1 was run?
Answer: The value was “resorptive effect on bone tissue”.

Question: And the “effect on bone tissue” value ([1]; 10^−11 M)?
Answer: Its value is “induces bone build-up”.
